Read-outs that look alike come from different tables or passages of the source.
System: Platelet Activating Factor induced platelet aggregation
Assay: Platelet aggregation inhibiting effect of rabbit by PAF (platelet rich plasma, Chrono-log aggregometer)
Format: cell-based, New Zealand White Rabbit
Details: for IC50: read-out: IC50, 50% of the inhibition concentration, platelet aggregation inhibiting effect; for platelet aggregation inhibiting activity compared with Ginkgolide B: rabbit PRP, PAF-induced, comparison in words
Protocol: The blood gathering in the ear artery of the New Zealand White Rabbit of weight 3~3.5 kg was mixed with 3.8% sodium citrate solution at the ratio of 1:9. After centrifuging for 10 minutes at 1000 rpm, the upper Platelet Rich Plasma(PRP) layer was taken. Again after centrifuging for 10 minutes at 3000 rpm, the upper Platelet Poor Plasma(PPP) was taken.
After measuring the platelet figures of the PRP using the Coulter counter, the platelet figures was adjusted to 3×10^5 /μl by diluting with PPP.
The ginkgolide derivatives which were obtained from the above example 1 and 5~9 was investigated platelet aggregation inhibiting effect by that 270 μl of PRP and 30 μl of the derivative solution was treated using the Chrono-log aggregometer which the light tansmittance of PPP was fixed to 100% and the light tansmittance of PRP was fixed to 0% and then 30 μl of Platelet Activating Factor of 5×10^-9 M and 5×10^-8 M concentration was added.
Then, IC50, 50% of the inhibition concentration, of derivatives was searched.

[1] = rabbit PRP adjusted to 3×10^5 /μl platelets, aggregation induced by PAF of 5×10^-9 M and 5×10^-8 M
[2] = Oryctolagus cuniculus, Platelet, rabbit PRP adjusted to 3×10^5 /μl platelets, aggregation induced by PAF of 5×10^-9 M and 5×10^-8 M
[3] = Oryctolagus cuniculus, Platelet

Row | Compound | IC50 [1] | platelet aggregation inhibiting activity compared with Ginkgolide B | IC50 [2] | IC50 [3]
1 | 3-dihydroxy-1,10-methylenedioxy-14-epi-Ginkgolide B [formula (III)] | 6.98 µM | low than the Ginkgolide B in its activity | – | –
2 | CC1C(=O)OC2C(O)C34C5CC(C(C)(C)C)C36C(OC(=O)C6O)OC4(C(=O)O5)C12O (centres unmarked) [Ginkgolide B, reference compound] | – | – | 0.427 µM | –
3 | C[C@@H]1C(=O)O[C@H]2C[C@@]34[C@H]5C[C@@H](C(C)(C)C)[C@]36[C@@H](OC(=O)[C@@H]6O)O[C@@]4(C(=O)O5)[C@]21O [Ginkgolide A, reference compound] | – | – | – | 1.75 µM
4 | 3-dehydroxy- 1,10-methylenedioxy-Ginkgolide B [formula (IV)] | 4.95 µM | low than the Ginkgolide B in its activity | – | –
5 | C[C@@H]1C(=O)OC2C1C13OC4OC(=O)C(O)C45C(C(C)(C)C)CC(OC1=O)C35C2O (some centres unmarked) [formula (I-a), 3-dehydroxy-Ginkgolide B] | – | low than the Ginkgolide B in its activity | – | 2.64 µM
6 | C[C@@H]1C(=O)OC2C3OCOC4C(=O)OC5OC6(C(=O)OC7CC(C(C)(C)C)C54C736)C21O (some centres unmarked) [formula (II), 1,10-methylenedioxy-Ginkgolide B] | – | low than the Ginkgolide B in its activity | 1.05 µM | –
7 | C[C@H]1C(=O)OC2C1C13OC4OC(=O)C(O)C45C(C(C)(C)C)CC(OC1=O)C35C2O (stereo partly drawn) [formula (I-b), 3-dehydroxy-14-epi-Ginkgolide B] | – | – | – | 13 µM

Source: patent US5466829A, “Ginkgolide derivatives and a process for preparing them” (priority 1991, dated 1995)
